Laboratory results reported in the supplement of paper PMC12282887.

Key:
Assay in all cases: fitness (OD AUC treated / untreated) (fraction); higher = more growth
[1] = system: E. coli BW25113 Drob + rob
Procedure: (§1)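 MIC curves of ciprofloxacin or amoxicillin, with or without 55.5 µg/ml caffeine, against E. coli BW25113 wild type, deletion mutants (ΔmicF, ΔompF, Δrob) and complemented strains. Assays ran in LB at 37°C in 96/384-well plates. Fitness is the OD600 AUC over 8 h divided by the no-drug control; 3-4 biological replicates.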

[2] = system: E. coli BW25113 Drob
Procedure: as §1

[3] = system: E. coli BW25113 WT
Procedure: as §1

[4] = system: E. coli BW25113 DmicF + micF
Procedure: as §1

[5] = system: E. coli BW25113 DmicF
Procedure: as §1

[6] = system: E. coli BW25113 DompF + ompF
Procedure: as §1

CC1(C)S[C@@H]2[C@H](NC(=O)[C@H](N)c3ccc(O)cc3)C(=O)N2[C@H]1C(=O)O [Amoxicillin]
fitness
Conditions	[1]	[2]	[3]
antibiotic concentration 0.72727 µg/ml, caffeine concentration 0 µg/ml	1.04	1.06	1.02
antibiotic concentration 0.72727 µg/ml, caffeine concentration 55.4857 µg/ml	0.988	0.954	0.986
antibiotic concentration 1.45455 µg/ml, caffeine concentration 0 µg/ml	1.098	1.067	1.03
antibiotic concentration 1.45455 µg/ml, caffeine concentration 55.4857 µg/ml	1.013	0.96	0.995
antibiotic concentration 2.18182 µg/ml, caffeine concentration 0 µg/ml	1.06	0.956	1.01
antibiotic concentration 2.18182 µg/ml, caffeine concentration 55.4857 µg/ml	1	0.8209	1.02
antibiotic concentration 2.90909 µg/ml, caffeine concentration 0 µg/ml	0.381	0.233	0.791
antibiotic concentration 2.90909 µg/ml, caffeine concentration 55.4857 µg/ml	0.976	0.207	1.07
antibiotic concentration 3.63636 µg/ml, caffeine concentration 0 µg/ml	0.156	0.107	0.246
antibiotic concentration 3.63636 µg/ml, caffeine concentration 55.4857 µg/ml	0.653	0.0967	0.971
antibiotic concentration 4.36364 µg/ml, caffeine concentration 0 µg/ml	0.0865	0.0398	0.114
antibiotic concentration 4.36364 µg/ml, caffeine concentration 55.4857 µg/ml	0.219	0.0126	0.637
antibiotic concentration 5.09091 µg/ml, caffeine concentration 0 µg/ml	0.0167	4.88e-05	0.0723
antibiotic concentration 5.09091 µg/ml, caffeine concentration 55.4857 µg/ml	0.113	0.000488	0.251
antibiotic concentration 5.81818 µg/ml, caffeine concentration 0 µg/ml	0	0	0.0283
antibiotic concentration 5.81818 µg/ml, caffeine concentration 55.4857 µg/ml	0.0601	0	0.133
antibiotic concentration 6.54545 µg/ml, caffeine concentration 0 µg/ml	0	0	0
antibiotic concentration 6.54545 µg/ml, caffeine concentration 55.4857 µg/ml	0.00196	0	0.0838
antibiotic concentration 7.27273 µg/ml, caffeine concentration 0 µg/ml	0	0	0
antibiotic concentration 7.27273 µg/ml, caffeine concentration 55.4857 µg/ml	0	0.000488	0.0273
antibiotic concentration 8 µg/ml, caffeine concentration 0 µg/ml	0	0	0
antibiotic concentration 8 µg/ml, caffeine concentration 55.4857 µg/ml	0.000108	0	0.00395

O=C(O)c1cn(C2CC2)c2cc(N3CCNCC3)c(F)cc2c1=O [Ciprofloxacin]
fitness
Conditions	[2]	[3]	[4]	[5]	[6]
antibiotic concentration 0.00227 µg/ml, caffeine concentration 0 µg/ml	1.07	1.07	1.05	0.916	–
antibiotic concentration 0.00227 µg/ml, caffeine concentration 55.4857 µg/ml	0.883	0.995	–	0.927	–
antibiotic concentration 0.00455 µg/ml, caffeine concentration 0 µg/ml	0.845	0.987	1.01	0.793	–
antibiotic concentration 0.00455 µg/ml, caffeine concentration 55.4857 µg/ml	0.887	0.986	–	0.867	–
antibiotic concentration 0.00682 µg/ml, caffeine concentration 0 µg/ml	0.754	0.99	0.985	0.625	–
antibiotic concentration 0.00682 µg/ml, caffeine concentration 55.4857 µg/ml	0.733	1	0.99	0.684	–
antibiotic concentration 0.00909 µg/ml, caffeine concentration 0 µg/ml	0.641	0.891	0.876	0.435	–
antibiotic concentration 0.00909 µg/ml, caffeine concentration 55.4857 µg/ml	0.619	0.953	0.941	–	–
antibiotic concentration 0.01136 µg/ml, caffeine concentration 0 µg/ml	0.42	0.766	0.679	0.232	–
antibiotic concentration 0.01136 µg/ml, caffeine concentration 55.4857 µg/ml	0.383	0.938	0.798	–	–
antibiotic concentration 0.01364 µg/ml, caffeine concentration 0 µg/ml	0.266	0.58	0.381	0.153	0.748
antibiotic concentration 0.01364 µg/ml, caffeine concentration 55.4857 µg/ml	0.199	0.82	0.571	–	0.89
antibiotic concentration 0.01591 µg/ml, caffeine concentration 0 µg/ml	0.143	0.448	0.154	0.0556	–
antibiotic concentration 0.01591 µg/ml, caffeine concentration 55.4857 µg/ml	0.114	0.728	0.329	–	–
antibiotic concentration 0.01818 µg/ml, caffeine concentration 0 µg/ml	0.0644	0.304	0.0704	0.017	–
antibiotic concentration 0.01818 µg/ml, caffeine concentration 55.4857 µg/ml	0.0408	0.607	0.207	–	–
antibiotic concentration 0.02045 µg/ml, caffeine concentration 0 µg/ml	0.0847	0.192	0.0466	0.0088	0.541
antibiotic concentration 0.02045 µg/ml, caffeine concentration 55.4857 µg/ml	0.0665	0.482	0.119	–	0.771
antibiotic concentration 0.02273 µg/ml, caffeine concentration 0 µg/ml	0.0851	0.101	0.045	0.00491	–
antibiotic concentration 0.02273 µg/ml, caffeine concentration 55.4857 µg/ml	0.0576	0.374	0.0506	0.00595	–
antibiotic concentration 0.025 µg/ml, caffeine concentration 0 µg/ml	0.0782	0.0921	0.0379	0	–
antibiotic concentration 0.025 µg/ml, caffeine concentration 55.4857 µg/ml	0.0414	0.276	0.0446	0	–
antibiotic concentration 0.02727 µg/ml, caffeine concentration 0 µg/ml	–	–	–	–	0.238
antibiotic concentration 0.02727 µg/ml, caffeine concentration 55.4857 µg/ml	–	–	–	–	0.558
antibiotic concentration 0.03409 µg/ml, caffeine concentration 0 µg/ml	–	–	–	–	0.0975
antibiotic concentration 0.03409 µg/ml, caffeine concentration 55.4857 µg/ml	–	–	–	–	0.359
antibiotic concentration 0.04091 µg/ml, caffeine concentration 0 µg/ml	–	–	–	–	0.039
antibiotic concentration 0.04091 µg/ml, caffeine concentration 55.4857 µg/ml	–	–	–	–	0.194
antibiotic concentration 0.04773 µg/ml, caffeine concentration 0 µg/ml	–	–	–	–	0.032
antibiotic concentration 0.04773 µg/ml, caffeine concentration 55.4857 µg/ml	–	–	–	–	0.102
antibiotic concentration 0.05455 µg/ml, caffeine concentration 0 µg/ml	–	–	–	–	0.0267
antibiotic concentration 0.05455 µg/ml, caffeine concentration 55.4857 µg/ml	–	–	–	–	0.0511
antibiotic concentration 0.06136 µg/ml, caffeine concentration 0 µg/ml	–	–	–	–	0.0262
antibiotic concentration 0.06136 µg/ml, caffeine concentration 55.4857 µg/ml	–	–	–	–	0.0404
antibiotic concentration 0.06818 µg/ml, caffeine concentration 0 µg/ml	–	–	–	–	0.0324
antibiotic concentration 0.06818 µg/ml, caffeine concentration 55.4857 µg/ml	–	–	–	–	0.0403
antibiotic concentration 0.075 µg/ml, caffeine concentration 0 µg/ml	–	–	–	–	0.0312
antibiotic concentration 0.075 µg/ml, caffeine concentration 55.4857 µg/ml	–	–	–	–	0.0317
